# Results taken from BindingDB's records for doi:10.1016/j.bmcl.2006.08.080 (Johnson & Johnson Pharmaceutical, 2006).
# pIC50: −log10 of the molar value.
# Target: T1, Aurora kinase A (Mus musculus, UniProt P97477)
# T1 sequence (P97477 whole entry): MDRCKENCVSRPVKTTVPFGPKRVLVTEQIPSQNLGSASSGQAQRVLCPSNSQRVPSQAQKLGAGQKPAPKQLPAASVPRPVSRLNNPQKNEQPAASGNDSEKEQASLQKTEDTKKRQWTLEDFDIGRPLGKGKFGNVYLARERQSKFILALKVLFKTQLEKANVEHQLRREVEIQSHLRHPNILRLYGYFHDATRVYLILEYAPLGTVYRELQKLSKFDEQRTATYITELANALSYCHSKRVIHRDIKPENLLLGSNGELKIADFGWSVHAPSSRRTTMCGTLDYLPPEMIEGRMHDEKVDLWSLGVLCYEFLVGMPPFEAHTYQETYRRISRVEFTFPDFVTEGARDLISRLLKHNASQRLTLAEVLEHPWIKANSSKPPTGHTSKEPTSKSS
# Test: Aurora Kinase Inhibition Assay
# Details: pH 7.5; 22 °C
# Protocol: The compounds were tested for their ability to inhibit the phosphorylation of serine 10 of histone-H3 by purified recombinant murine Aurora-A enzyme. The phosphorylation of serine 10 was detected colorimetrically using Phospho-Histone H3 (Ser10) (6G3) Mouse mAb (9706, Cell Signaling Technologies, Danvers, MA).
row,SMILES,pIC50
1,"CN1CCN(c2cccc(Nc3ncc4ccn(-c5cccc(C(N)=O)c5)c4n3)c2)CC1 [3-(2-{[3-(4-methylpiperazin-1-yl)phenyl]amino}-7H-pyrrolo[2,3-d]pyrimidin-7-yl)benzamide]",7.96
2,"CN1CCN(c2cccc(Nc3ncc4ccn(-c5cccc(C#N)c5)c4n3)c2)CC1 [3-(2-{[3-(4-methylpiperazin-1-yl)phenyl]amino}-7H-pyrrolo[2,3-d]pyrimidin-7-yl)benzonitrile]",7.89
3,"O=S1(=O)CCN(c2ccc(Nc3ncc4ccn(C5CCCCC5)c4n3)cc2)CC1 [4-[4-({7-cyclohexyl-7H-pyrrolo[2,3-d]pyrimidin-2-yl}amino)phenyl]-1,4-thiomorpholine-1,1-dione]",7.92
4,"CN1CCN(c2ccc(Nc3ncc4ccn(C5Cc6ccccc6C5)c4n3)cc2)CC1 [7-(2,3-dihydro-1H-inden-2-yl)-N-[4-(4-methylpiperazin-1-yl)phenyl]-7H-pyrrolo[2,3-d]pyrimidin-2-amine]",7.74
5,"CN1CCN(c2cccc(Nc3ncc4ccn(-c5cccc(S(C)(=O)=O)c5)c4n3)c2)CC1 [7-(3-methanesulfonylphenyl)-N-[3-(4-methylpiperazin-1-yl)phenyl]-7H-pyrrolo[2,3-d]pyrimidin-2-amine]",8.00
6,"COc1cccc(-n2ccc3cnc(Nc4ccc(N5CCN(C)CC5)cc4)nc32)c1 [7-(3-methoxyphenyl)-N-[4-(4-methylpiperazin-1-yl)phenyl]-7H-pyrrolo[2,3-d]pyrimidin-2-amine]",7.74
7,"c1cc(N2CCOCC2)ccc1Nc1ncc2ccn(C3CCCCC3)c2n1 [7-cyclohexyl-N-[4-(morpholin-4-yl)phenyl]-7H-pyrrolo[2,3-d]pyrimidin-2-amine]",7.31
8,"CN1CCN(c2ccc(Nc3ncc4ccn(C5CC6CCC5C6)c4n3)cc2)CC1 (stereo not given) [7-{bicyclo[2.2.1]heptan-2-yl}-N-[4-(4-methylpiperazin-1-yl)phenyl]-7H-pyrrolo[2,3-d]pyrimidin-2-amine]",7.41
9,"CN1CCN(c2cccc(Nc3ncc4ccn(-c5cccnc5)c4n3)c2)CC1 [N-[3-(4-methylpiperazin-1-yl)phenyl]-7-(pyridin-3-yl)-7H-pyrrolo[2,3-d]pyrimidin-2-amine]",7.92
10,"CC(C)c1cccc(-n2ccc3cnc(Nc4cccc(N5CCN(C)CC5)c4)nc32)c1 [N-[3-(4-methylpiperazin-1-yl)phenyl]-7-[3-(propan-2-yl)phenyl]-7H-pyrrolo[2,3-d]pyrimidin-2-amine]",7.54
11,"CN1CCN(c2ccc(Nc3ncc4ccn(-c5cccnc5)c4n3)cc2)CC1 [N-[4-(4-methylpiperazin-1-yl)phenyl]-7-(pyridin-3-yl)-7H-pyrrolo[2,3-d]pyrimidin-2-amine]",7.89
12,COc1cc2c(Nc3ccc(NC(=O)c4ccccc4)cc3)ncnc2cc1OCCCN1CCOCC1 [N-[4-({6-methoxy-7-[3-(morpholin-4-yl)propoxy]quinazolin-4-yl}amino)phenyl]benzamide],7.41
13,"CN1CCN(c2cccc(Nc3ncc4ccn(-c5cccc(C(=O)NC6CCCC6)c5)c4n3)c2)CC1 [N-cyclopentyl-3-(2-{[3-(4-methylpiperazin-1-yl)phenyl]amino}-7H-pyrrolo[2,3-d]pyrimidin-7-yl)benzamide]",6.09

# Now those with a higher pIC50, led by results:
row,pIC50,SMILES
1,9.10,"O=S1(=O)CCN(c2ccc(Nc3ncc4ccn(-c5ccccn5)c4n3)cc2)CC1 [4-(4-{[7-(pyridin-2-yl)-7H-pyrrolo[2,3-d]pyrimidin-2-yl]amino}phenyl)-1,4-thiomorpholine-1,1-dione]"
2,8.05,"CN1CCN(c2ccc(Nc3ncc4ccn(-c5cccc(S(C)(=O)=O)c5)c4n3)cc2)CC1 [7-(3-methanesulfonylphenyl)-N-[4-(4-methylpiperazin-1-yl)phenyl]-7H-pyrrolo[2,3-d]pyrimidin-2-amine]"
3,8.22,"COc1cccc(-n2ccc3cnc(Nc4cccc(N5CCN(C)CC5)c4)nc32)c1 [7-(3-methoxyphenyl)-N-[3-(4-methylpiperazin-1-yl)phenyl]-7H-pyrrolo[2,3-d]pyrimidin-2-amine]"
4,8.30,"CN1CCN(c2cccc(Nc3ncc4ccn(-c5ccccn5)c4n3)c2)CC1 [N-[3-(4-methylpiperazin-1-yl)phenyl]-7-(pyridin-2-yl)-7H-pyrrolo[2,3-d]pyrimidin-2-amine]"
5,8.52,"CN1CCN(c2cccc(Nc3ncc4ccn(-c5ccccc5)c4n3)c2)CC1 [N-[3-(4-methylpiperazin-1-yl)phenyl]-7-phenyl-7H-pyrrolo[2,3-d]pyrimidin-2-amine]"
6,8.22,"COCCN1CCN(Nc2ncc3ccn(C4CCCCC4)c3n2)CC1 [N-{7-cyclohexyl-7H-pyrrolo[2,3-d]pyrimidin-2-yl}-4-(2-methoxyethyl)piperazin-1-amine]"

# Target: Receptor-type tyrosine-protein kinase FLT3 (Homo sapiens, UniProt P36888)
# Sequence (P36888 whole entry, looked up): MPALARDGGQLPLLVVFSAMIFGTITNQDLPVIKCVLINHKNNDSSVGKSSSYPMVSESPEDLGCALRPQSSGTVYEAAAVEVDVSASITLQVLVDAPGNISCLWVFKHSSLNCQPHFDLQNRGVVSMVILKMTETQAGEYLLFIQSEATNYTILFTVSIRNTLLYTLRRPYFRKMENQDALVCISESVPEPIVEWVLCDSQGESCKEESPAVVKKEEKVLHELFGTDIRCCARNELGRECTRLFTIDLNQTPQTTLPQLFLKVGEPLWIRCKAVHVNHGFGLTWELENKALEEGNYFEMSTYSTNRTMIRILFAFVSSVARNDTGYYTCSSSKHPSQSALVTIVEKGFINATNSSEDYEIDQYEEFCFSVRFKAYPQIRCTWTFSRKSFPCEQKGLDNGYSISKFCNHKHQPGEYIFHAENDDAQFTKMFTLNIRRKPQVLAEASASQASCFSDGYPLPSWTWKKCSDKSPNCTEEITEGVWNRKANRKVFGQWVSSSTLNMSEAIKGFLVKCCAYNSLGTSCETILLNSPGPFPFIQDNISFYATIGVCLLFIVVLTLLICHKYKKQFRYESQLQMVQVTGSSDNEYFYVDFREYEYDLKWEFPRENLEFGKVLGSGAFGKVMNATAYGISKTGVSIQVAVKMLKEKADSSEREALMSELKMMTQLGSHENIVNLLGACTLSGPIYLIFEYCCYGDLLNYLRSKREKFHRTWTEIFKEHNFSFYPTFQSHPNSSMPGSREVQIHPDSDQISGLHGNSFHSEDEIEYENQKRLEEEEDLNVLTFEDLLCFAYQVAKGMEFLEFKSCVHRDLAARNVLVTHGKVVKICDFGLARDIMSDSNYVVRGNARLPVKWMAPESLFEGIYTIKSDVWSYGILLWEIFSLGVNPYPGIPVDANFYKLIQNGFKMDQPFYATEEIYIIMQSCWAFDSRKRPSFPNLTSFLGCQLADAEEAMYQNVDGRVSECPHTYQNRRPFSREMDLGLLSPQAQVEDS
# Test: FLT3 Inhibition Assay
# Details: not given
# Protocol: The compounds were tested for their ability to inhibit the phosphorylation of poly(Glu:Tyr) by purified recombinant human FLT3. The extent of phosphorylation was quantitated by a fluorescent polarization competition immunoassay (Ex: 485 nm, Em:530 nm) using an anti-phosphotyrosine antibody and a phosphotyrosine tracer (Green Tyrosine Kinase Assay Kit, PanVera P2837).
row,pIC50,SMILES
1,> 9.00,"O=S1(=O)CCN(c2ccc(Nc3ncc4ccn(-c5ccccn5)c4n3)cc2)CC1 [4-(4-{[7-(pyridin-2-yl)-7H-pyrrolo[2,3-d]pyrimidin-2-yl]amino}phenyl)-1,4-thiomorpholine-1,1-dione]"
